11 compounds from patent publication US8664228B2, “3,5-diamino-6-chloro-pyrazine-2-carboxylic acid derivatives and their use as epithelial sodium channel blockers for the treatment of airway diseases” (Novartis AG, priority 2008, dated 2014) can be followed below.

Each structure is given as a SMILES string. Counter-ions that a name gives are not always drawn.

The assay deals with T1, epithelial sodium channel (ENaC) (Homo sapiens, UniProt P37088+P51168+P51170).
T1 construct: host or cells: primary human bronchial epithelial cells (HBECs), air-liquid interface culture
T1 sequence (P37088 1-669): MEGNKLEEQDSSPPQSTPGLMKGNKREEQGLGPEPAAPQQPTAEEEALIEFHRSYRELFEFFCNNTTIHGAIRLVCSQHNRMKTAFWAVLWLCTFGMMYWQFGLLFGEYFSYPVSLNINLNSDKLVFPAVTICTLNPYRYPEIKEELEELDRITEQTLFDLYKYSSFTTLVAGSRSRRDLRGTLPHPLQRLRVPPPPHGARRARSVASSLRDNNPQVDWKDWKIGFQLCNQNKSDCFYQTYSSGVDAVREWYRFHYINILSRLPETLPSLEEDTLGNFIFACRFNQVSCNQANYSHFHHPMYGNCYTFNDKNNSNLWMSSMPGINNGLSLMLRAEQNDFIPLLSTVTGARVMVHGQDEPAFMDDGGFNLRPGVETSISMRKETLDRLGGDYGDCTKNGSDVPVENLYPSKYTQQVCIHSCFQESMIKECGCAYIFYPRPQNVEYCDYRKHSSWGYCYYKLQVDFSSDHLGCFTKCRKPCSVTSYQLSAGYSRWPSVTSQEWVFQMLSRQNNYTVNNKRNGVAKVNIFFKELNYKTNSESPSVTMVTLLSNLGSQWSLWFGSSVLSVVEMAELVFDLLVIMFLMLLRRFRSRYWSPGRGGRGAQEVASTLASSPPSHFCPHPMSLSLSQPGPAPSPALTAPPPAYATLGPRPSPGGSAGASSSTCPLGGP
T1 sequence (P51168 1-640): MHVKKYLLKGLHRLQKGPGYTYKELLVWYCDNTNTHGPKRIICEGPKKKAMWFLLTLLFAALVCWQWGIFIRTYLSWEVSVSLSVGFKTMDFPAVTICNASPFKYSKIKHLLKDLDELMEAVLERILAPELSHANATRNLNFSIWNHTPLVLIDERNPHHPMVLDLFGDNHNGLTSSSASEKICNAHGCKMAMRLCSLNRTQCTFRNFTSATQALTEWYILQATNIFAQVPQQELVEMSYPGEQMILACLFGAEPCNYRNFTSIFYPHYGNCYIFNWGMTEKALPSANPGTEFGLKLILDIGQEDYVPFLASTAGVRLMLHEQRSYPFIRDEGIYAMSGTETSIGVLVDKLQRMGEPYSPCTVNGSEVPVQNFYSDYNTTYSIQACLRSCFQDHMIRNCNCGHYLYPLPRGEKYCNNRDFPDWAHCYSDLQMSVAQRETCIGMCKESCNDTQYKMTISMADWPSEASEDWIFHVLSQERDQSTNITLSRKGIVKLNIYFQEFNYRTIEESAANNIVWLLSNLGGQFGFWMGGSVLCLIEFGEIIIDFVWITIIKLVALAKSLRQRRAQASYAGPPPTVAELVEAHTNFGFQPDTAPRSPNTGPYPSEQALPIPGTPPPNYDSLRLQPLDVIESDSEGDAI
T1 sequence (P51170 1-649): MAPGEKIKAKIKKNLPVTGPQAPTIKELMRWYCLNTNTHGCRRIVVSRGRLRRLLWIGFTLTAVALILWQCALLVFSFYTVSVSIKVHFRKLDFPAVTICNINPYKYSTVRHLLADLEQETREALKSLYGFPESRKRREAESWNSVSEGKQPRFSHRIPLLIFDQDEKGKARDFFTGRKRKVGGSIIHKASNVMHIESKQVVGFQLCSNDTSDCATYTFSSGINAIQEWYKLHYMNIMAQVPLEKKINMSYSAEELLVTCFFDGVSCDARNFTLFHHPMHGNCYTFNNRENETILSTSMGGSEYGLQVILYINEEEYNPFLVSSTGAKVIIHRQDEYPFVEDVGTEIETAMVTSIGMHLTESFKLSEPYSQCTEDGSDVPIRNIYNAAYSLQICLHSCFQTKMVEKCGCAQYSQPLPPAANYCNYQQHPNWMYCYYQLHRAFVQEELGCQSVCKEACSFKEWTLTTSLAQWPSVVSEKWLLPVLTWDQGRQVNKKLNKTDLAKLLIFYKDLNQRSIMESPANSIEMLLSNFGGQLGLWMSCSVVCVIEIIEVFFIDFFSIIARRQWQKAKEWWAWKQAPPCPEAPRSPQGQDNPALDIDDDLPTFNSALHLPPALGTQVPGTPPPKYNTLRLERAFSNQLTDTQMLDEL
The assay is described as follows: Short circuit current (ISC) measurements in human bronchial epithelial cells, inhibition of amiloride-sensitive ISC. It counts as cell-based. Conditions: Human Bronchial Epithelial cells (HBECs) at air-liquid interface, Ussing chamber, apical addition. As for the experimental part: Human Bronchial Epithelial cells (HBECs) (Cambrex) were cultured under air-liquid interface conditions to provide a well differentiated mucociliary phenotype.
HBECs were cultured using a modification of the method described by Gray and colleagues (Gray et al., 1996). Cells were seeded in plastic T-162 flasks and were grown in bronchial epithelial cell growth medium (BEGM; Cambrex) supplemented with bovine pituitary extract (52 μg/mL), hydrocortisone (0.5 μg/mL), human recombinant epidermal growth factor (0.5 ng/mL), epinephrine (0.5 μg/mL), transferrin (10 μg/mL), insulin (5 μg/mL), retinoic acid (0.1 μg/mL), triiodothyronine ([…]), gentamycin (50 μg/mL) and amphotericin B (50 ng/mL). Medium was changed every 48 hours until cells were 90% confluent. Cells were then passaged and seeded (8.25×10^5 cells/insert) on polycarbonate Snapwell inserts (Costar) in differentiation media containing 50% DMEM in BEGM with the same supplements as above but without triiodothyronine and a final retinoic acid concentration of 50 nM (all-trans retinoic acid). Cells were maintained submerged for the first 7 days in culture, after which time they were exposed to an apical air interface for the remainder of the culture period. At this time, media was changed to DMEM:F12 media containing 2% v/v Ultroser G for the remainder of culture. Amphotericin B was removed from all media 3 feeds prior to use in the Ussing Chambers. Cells were used between days 7 and 21 after establishment of the apical-air interface. At all stages of culture, cells were maintained at 37° C. in 5% CO2 in an air incubator.
Snapwell inserts were mounted in Vertical Diffusion Chambers (Costar) and were bathed with continuously gassed Ringer solution (5% CO2 in O2; pH 7.4) maintained at 37° C. containing (in mM): 120 NaCl, 25 NaHCO3, 3.3 KH2PO4, 0.8 K2HPO4, 1.2 CaCl2, 1.2 MgCl2, and 10 glucose. The solution osmolarity was between 280 and 300 mOsmol/kg H2O for all physiological salt solutions used. Cells were voltage clamped to 0 mV (model EVC4000; WPI). RT was measured by applying a 1- or 2-mV pulse at 30-s intervals and calculating RT by Ohm's law. Data were recorded using a PowerLab workstation (ADInstruments).
Test compounds were prepared as a 10 mM stock solution in DMSO (95%). Serial 3-fold dilutions were freshly prepared in an appropriate vehicle (distilled H2O or Ringers solution). The initial concentration was added to the apical chamber as a 1000× concentrate in 5 μL, resulting in a final 1× concentration the 5 mL volume of the Ussing chamber. Subsequent additions of compound were added in a 3.3 μL volume of the 1000× serially diluted stock solution. At the completion of the concentration-response experiment, amiloride (10 μM) was added into the apical chamber to enable the total amiloride-sensitive current to be measured. An amiloride control IC50 was established at the start of each experiment.
Results are expressed as the mean % inhibition of the amiloride-sensitive ISC. Concentration-response curves were plotted and IC50 values generated using GraphPad Prism 3.02. Cell inserts were typically run in duplicate and the IC50 calculated on the mean % inhibition data.

As a reminder, the IC50 is the point on the concentration scale where inhibition reaches its midpoint. Read a low IC50 as greater potency in that assay. `CCC[C@H](N)CNC(=O)c1nc(Cl)c(N)nc1N` [Example 4, 3,5-Diamino-6-chloro-pyrazine-2-carboxylic acid ((S)-2-amino-pentyl)-amide hydrochloride] gave an IC50 of 0.29 µM.

`Nc1nc(N)c(C(=O)NC[C@@H]2CCCN2)nc1Cl` [Example 9, 3,5-Diamino-6-chloro-pyrazine-2-carboxylic acid ((S)-1-pyrrolidin-2-ylmethyl)-amide hydrochloride] returned an IC50 of 2.74 µM.

`Nc1nc(N)c(C(=O)NCC2(N)CCCC2)nc1Cl` [Example 11, 3,5-Diamino-6-chloro-pyrazine-2-carboxylic acid (1-amino-cyclopentylmethyl)-amide hydrochloride] had an IC50 of 5.9 µM.

`Nc1nc(N)c(C(=O)NC[C@@H](N)CCCCNC(=O)Cc2ccc(OCc3ccccc3)cc2)nc1Cl` [Example 12, 3,5-Diamino-6-chloro-pyrazine-2-carboxylic acid {(S)-2-amino-6-[2-(4-benzyloxy-phenyl)-acetylamino]-hexyl}-amide trifluororoacetate] gave an IC50 of 0.032 µM.

`Nc1nc(N)c(C(=O)NC[C@@H](N)CCCCNC(=O)CCc2ccc(OCc3ccccc3)cc2)nc1Cl` [Example 21, 3,5-Diamino-6-chloro-pyrazine-2-carboxylic acid {(S)-2-amino-6-[3-(4-benzyloxy-phenyl)-propionylamino]-hexyl}-amide hydrochloride] gave an IC50 of 0.064 µM.

Compound `CCC[C@H](CNC(=O)c1nc(Cl)c(N)nc1N)NC(=N)N` [Example 24, 3,5-Diamino-6-chloro-pyrazine-2-carboxylic acid ((R)-2-guanidino-pentyl)-amide trifluoroacetate] had an IC50 of 0.045 µM.

In the case of `CCC[C@@H](CNC(=O)c1nc(Cl)c(N)nc1N)NCCCc1ccc(OC)cc1` [Example 26, 3,5-Diamino-6-chloro-pyrazine-2-carboxylic acid {(S)-2-[3-(4-methoxy-phenyl)-propylamino]-pentyl}-amide hydrochloride], the IC50 amounted to 0.06 µM. The IC50 values of the last two compounds are within 1.5-fold of each other.

Regarding `N=C(N)N[C@@H](CCCCNC(=O)Cc1ccc(OCc2ccccc2)cc1)CNC(=O)c1nc(Cl)c(N)nc1N` [Example 27, 3,5-Diamino-6-chloro-pyrazine-2-carboxylic acid {(S)-6-[2-(4-benzyloxy-phenyl)-acetylamino]-2-guanidino-hexyl}-amide trifluoroacetate], the IC50 was determined as 0.2 µM.

As for `CCC[C@H](CNC(=O)c1nc(Cl)c(N)nc1N)N(CCCc1ccc(OC)cc1)C(=N)N` [Example 29, 3,5-Diamino-6-chloro-pyrazine-2-carboxylic acid ((R)-2-{N-[3-(4-methoxy-phenyl)-propyl]-guanidino}-pentyl)-amide trifluoroacetate], the IC50 amounted to 0.005 µM.

In the case of `CCC[C@@H](CNC(=O)c1nc(Cl)c(N)nc1N)NC(=N)NCCCc1ccc(OC)cc1` [Example 31, 3,5-Diamino-6-chloro-pyrazine-2-carboxylic acid ((S)-2-{N′-[3-(4-methoxy-phenyl)-propyl]-guanidino}-pentyl)-amide], the IC50 is 0.049 µM.

`CCC[C@@H](CNC(=O)c1nc(Cl)c(N)nc1N)NC(=N)NCc1ccc(OC)cc1` [Example 32, 3,5-Diamino-6-chloro-pyrazine-2-carboxylic acid {(S)-2-[N′-(4-methoxy-benzyl)-guanidino]-pentyl}-amide] gave an IC50 of 0.006 µM. This IC50 lies about 8.2-fold lower than the previous one.
